This note sets out measurements from US20060183221A1, “Method for neural differentiation of embryonic stem cells using protease passaging techniques” (priority 2003, published 2006).

For the experiment, the system named is differentiating mouse ES cells (ES-J1). As to the kind of experiment: Apoptosis (TUNEL staining) in differentiating mouse ES cells incubated with ceramide analogs. The experiment is classed as cell-based. The settings on record: for cell death: 20 hours with 75 μM S18; for TUNEL stained cells: 15 hours with 75 μM S16 or S18, or 35 μM C2-ceramide. The method, then: In vitro neural differentiation of mouse ES cells (ES-J1, ES-D3) followed a serum deprivation protocol as described previously (Hancock, et al., 2000, Biochem. Biophys. Res. Commun. 271: 418-421). The differentiation stages are outlined in FIG. 2. Briefly, ES cells were grown on gamma-irradiated feeder fibroblasts for four days in Knockout DMEM/15% Knockout serum replacement, supplemented with ESGRO (LIF; Chemicon; Cat No. ESG1106) at a concentration of […] medium. ES cells were then grown for another four days on gelatin-coated bacterial culture dishes without a fibroblast feeder layer, and were then grown for three days in Knockout DMEM/15% heat-inactivated ES qualified Fetal Bovine Serum, supplemented with 10^3 units LIF per ml of medium. Upon trypsinization, ES cells were transferred to bacterial culture dishes without gelatin, and embryoid body (EB) formation was induced for four days in Knockout DMEM/10% heat-inactivated ES qualified FBS without LIF (EB4 stage). On the fifth day, floating and loosely attached EBs were rinsed off and transferred to tissue culture dishes. The EBs were allowed to attach to the tissue culture dish surface by incubation for another 24 hours in Knockout DMEM with 10% heat-inactivated ES qualified fetal bovine serum. Neural differentiation due to serum deprivation was induced by cultivation of the EBs for three days in DMEM/F12 (50/50), supplemented with 1×N2 (Invitrogen/Life Technologies; Cat No. 17502, dilution of 1: 100) but without serum (EB8 stage). Serum-deprived EBs were then trypsinized, plated on poly-L-ornithine/laminin-coated tissue culture dishes and grown for four days in DMEM/F12 (50/50), supplemented with N2 and 10 ng/ml FGF-2, but without serum. his incubation period is referred to as neuroprogenitor (NP) stage due to commitment of neuroepithelial precursor cells to neuroprogenitor cells. These cells have committed during the EB stages and were expanded during the NP stage. NPs grown for 48 hours upon replating of trypsinized EBs were referred to as the NP2 stage. On the fifth day of NP formation, the medium was changed to Neurobasal (Invitrogen/Life Technologies; Cat No. 21103-049), with 5% heat-inactivated FBS, and the cells were incubated for another seven days. During this time, NPs fully differentiate to glial cells and neurons. Cells cultured for 24 hours or 96 hours upon changing the medium were referred to as the D1 or D4 stage, respectively.
ES cells were cultured and differentiated to the EB4, EB8, NP2, or D4 stage following the protocol as described above. The ceramide analog S18 was dissolved in ethanol at a concentration of 100 mM and then added to the cells at a final concentration of 75 μM in medium. The cells at the EB8 stage were incubated for 48 hours in the presence of the ceramide analog and were then transplanted into mouse brains.
Differentiating ES cells were grown on cover slips and fixed with 4% paraformaldehyde in phosphate-buffered saline (PBS). Fixed cells were permeabilized with 0.5% Triton X-100 in PBS for 5 minutes at room temperature and unspecific binding sites were saturated by incubation with 3% ovalbumin in PBS for 1 hour at 37° C. The cover slips were then incubated with 5 μg/ml primary antibody (anti-ceramide clone 15B4 mouse IgM, Alexis; anti-PAR-4 rabbit IgG, Santa Cruz; anti-PCNA rabbit IgG, Santa Cruz; anti-nestin clone 401 rat IgG, BD Pharmingen) in 0.1% ovalbumin/PBS, followed by incubation with the appropriate fluorescence-labeled secondary antibody (5 μg/ml Alexa 546 conjugated anti-mouse IgG, Molecular Probes; Alexa 488 conjugated anti-rabbit IgG, Molecular Probes, Cy3 conjugated anti-mouse IgM, Jackson) for 2 hours at 37° C. The nuclei were stained by treatment with 2 μg/ml Hoechst 33258 in PBS for 30 minutes at room temperature. Apoptotic nuclei were stained using the fluorescein FragEL TUNEL assay (Oncogene) according to the manufacturer's instructions. […]

As for `CCCCCCCC/C=C\CCCCCCCC(=O)NC(CO)CO` [S18, N-(2-hydroxy-1-(hydroxymethyl)ethyl)-oleoylamide], the cell death entry is reported as “high degree of cell death” (EB8 and NP2 stages); “unaffected” (differentiated neurons). This molecule also returned a TUNEL stained cells (EB8 stage) of 45±10% and a TUNEL stained cells (NP2 stage) of 70±10%.
